From US10711314B2, “Methods for diagnosing IDH-mutant cell proliferation disorders” (Agios Pharmaceuticals, Inc., priority 2009, dated 2020)
pIC50, pKi: −log10 of the molar value. Several values for one entry are separate records, joined by “and”; a condition that tells them apart may be missing. Equal entries are not always repeated. Where two headings read alike, the source gives them in different places.

Tests used:
IDH1 R132H [1] = target: T1, IDH1 R132H (Homo sapiens, UniProt O75874, R132H); test: Inhibition of oxidative decarboxylation of isocitrate to α-KG by IDH1 R132H; format: biochemical
T1 construct: The resultant fragments for IDH1 (full length) and IDH2 (residues 40-452) were cloned into vector pET41a; made in house; host or cells: E. coli
T1 sequence (O75874 whole entry R132H, the tested form may be a part): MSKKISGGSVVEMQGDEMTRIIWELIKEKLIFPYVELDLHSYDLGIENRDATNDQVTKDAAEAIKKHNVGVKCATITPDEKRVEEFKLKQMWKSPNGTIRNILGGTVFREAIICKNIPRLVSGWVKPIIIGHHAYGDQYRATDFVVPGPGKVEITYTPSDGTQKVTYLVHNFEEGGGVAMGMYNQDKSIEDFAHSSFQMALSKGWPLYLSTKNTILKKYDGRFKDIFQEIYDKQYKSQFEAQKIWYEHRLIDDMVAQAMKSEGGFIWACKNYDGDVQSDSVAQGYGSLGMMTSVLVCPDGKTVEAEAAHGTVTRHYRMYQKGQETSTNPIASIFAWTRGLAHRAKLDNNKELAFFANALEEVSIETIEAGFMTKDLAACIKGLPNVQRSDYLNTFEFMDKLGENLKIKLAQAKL
Protocol: (§1) In these reactions, the substrate was varied while the cofactor was held constant at 500 uM. All reactions were performed in 150 mM NaCl, 20 mM Tris-Cl, pH 7.5, 10% glycerol, and 0.03% (w/v) BSA). Reaction progress was followed by spectroscopy at 340 nM monitoring the change in oxidation state of the cofactor. Sufficient enzyme was added to give a linear change in absorbance for 10 minutes.
(§2) A well-known regulatory mechanism for control of metabolic enzymes is feedback inhibition, in which the product of the reaction acts as a negative regulator for the generating enzyme.
(§3) Final concentrations: Tris 7.5 20 mM, NaCl 150 mM, MnCl2 2 mM, Glycerol 10%, BSA 0.03%, NADP 0.5 mM, IDH1 wt 1.5 ug/ml, IDH1R132S 30 ug/ml, IDH1R132H 60 ug/ml, DL-isocitrate (5-650 uM).

IDH1 R132S = target: T2, IDH1 R132S (Homo sapiens, UniProt O75874, R132S); test: Inhibition of oxidative decarboxylation of isocitrate to α-KG by IDH1 R132S; format: biochemical
T2 construct: The resultant fragments for IDH1 (full length) and IDH2 (residues 40-452) were cloned into vector pET41a; made in house; host or cells: E. coli Rosetta
T2 sequence (O75874 whole entry R132S, the tested form may be a part): as the sequence (O75874 whole entry R132H, the tested form may be a part) above, with H132S counted along it
Protocol: as §1, §2, §3

IDH1 wild-type = target: T3, IDH1 wild-type (Homo sapiens, UniProt O75874); test: Inhibition of oxidative decarboxylation of isocitrate to α-KG by IDH1 wild-type; format: biochemical; conditions: for effect on the oxidative decarboxylation of isocitrate by wild-type ICDH1: added in a titration series
T3 construct: The resultant fragments for IDH1 (full length) and IDH2 (residues 40-452) were cloned into vector pET41a; made in house; host or cells: E. coli Rosetta
T3 sequence (O75874 whole entry, the tested form may be a part): as the sequence (O75874 whole entry R132H, the tested form may be a part) above, with H132R counted along it
Protocol: as §1, §2, §3
A reaction containing the wild-type ICDH1, NADP, and α-KG was assembled (under conditions as described above) to which was added in a titration series either (R)-2-hydroxyglutarate or the reaction product of the ICDH1 […] mutant reduction of α-KG to 2-hydroxyglutarate.

LDHb = LDHb (Homo sapiens, UniProt P07195); test: LDHb IC50 (Table 24a); format: biochemical
Sequence of LDHb (P07195 whole entry, species assumed): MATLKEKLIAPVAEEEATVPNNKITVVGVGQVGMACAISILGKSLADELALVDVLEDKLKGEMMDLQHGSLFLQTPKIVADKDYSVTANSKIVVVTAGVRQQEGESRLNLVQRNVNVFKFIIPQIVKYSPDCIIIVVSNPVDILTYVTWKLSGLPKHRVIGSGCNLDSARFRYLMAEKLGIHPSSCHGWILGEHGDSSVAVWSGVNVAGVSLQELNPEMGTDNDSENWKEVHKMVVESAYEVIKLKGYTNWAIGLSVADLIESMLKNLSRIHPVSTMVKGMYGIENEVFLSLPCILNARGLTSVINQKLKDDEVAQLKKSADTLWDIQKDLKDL

LDHa = LDHa (Homo sapiens, UniProt P00338); test: LDHa IC50 (Table 24a); format: biochemical
IDH1 R132H [2] = target: T1, IDH1 R132H; test: High throughput screening for IDH1 R132H inhibitors (NADPH/αKG, resazurin detection); format: biochemical; conditions: for IC50 Ratio (40/4): ratio of ICDH IC50 at 40 uM vs 4 uM NADPH
Protocol: Assays were conducted in a volume of 76 ul assay buffer (150 mM NaCl, 10 mM MgCl2, 20 mM Tris pH 7.5, 0.03% bovine serum albumin) as follows in a standard 384-well plate: To 25 ul of substrate mix (8 uM NADPH, 2 mM αKG), 1 ul of test compound was added in DMSO. […] The reaction was incubated for 50 minutes at room temperature, then 25 ul of detection mix (30 uM resazurin, […]) was added and the mixture further incubated for 5 minutes at room temperature. The conversion of resazurin to resorufin was detected by fluorescent spectroscopy at Ex544 Em590 c/o 590.
(§4) The selectivity between wild type vs mutant could be >20-fold.

[3] = IDH1/2 activity assay, reverse reaction (α-KG and NADPH); format: biochemical, human; conditions: reductive (→NADP^+)
Protocol: (§5) All reactions were performed in standard enzyme reaction buffer (150 mM NaCl, 20 mM Tris-Cl, pH 7.5, 10 mM MgCl2 and 0.03% (w/v) bovine serum albumin). For determination of kinetic parameters, sufficient enzyme was added to give a linear reaction for 1 to 5 seconds. Enzymatic binding constants were determined using curve fitting algorithms to standard kinetic models with the Sigmaplot software package (Systat Software, San Jose, Calif.). For determination of kcat, enzyme was incubated with 5×Km of substrate and cofactor; consumption of NADPH or NADP was determined by a change in the OD340 over time. In both cases an extinction coefficient of 6200 M^−1 cm^−1 was used for NADPH.

[4] = IDH1/2 activity assay, forward reaction (isocitrate and NADP+); format: biochemical, human; conditions: Oxidative (→NADPH), recombinant IDH1; for pKi: inhibition by aKG; for Km: read-out: KM,isocitrate
Protocol: as §5

[5] = Enzyme kinetics of IDH1 wild-type and mutants in oxidative decarboxylation of isocitrate to α-KG; format: biochemical, human
Protocol: as §1
All data was fit to the Hill equation by least-squares regression analysis.

[6] = Reduction of alpha-ketoglutarate with NADH by IDH1 wild-type and mutants; format: biochemical, human
Protocol: In order to evaluate the ability of the mutant enzymes to utilize NADH in the reduction of alpha-ketoglutarate, the following experiment was conducted.

[7] = Enzyme kinetics of IDH1 wild-type and mutants in reduction of α-KG with NADPH; format: biochemical, human; conditions: for consumption of NADPH in reduction of α-KG: 40 ug/ml of enzyme
Protocol: as §1, with “reactions,” for “reactions, the”, “50” for “150”, “potassium phosphate buffer,” for “NaCl, 20 mM Tris-Cl,”, “6.5,” for “7.5,”, “glycerol,” for “glycerol, and”, “BSA, 5 mM MgCl2, and 40 mM sodium hydrocarbonate.” for “BSA).”

IDH1 wt = target: T4, IDH1 wt (Homo sapiens, UniProt O75874); test: IDH1 wt assay (wild type vs mutant selectivity); format: biochemical
T4 construct: The resultant fragments for IDH1 (full length) and IDH2 (residues 40-452) were cloned into vector pET41a; made in house; host or cells: E. coli
T4 sequence (O75874 whole entry, the tested form may be a part): as the sequence (O75874 whole entry R132H, the tested form may be a part) above, with H132R counted along it
Excerpt: as §4

[8] = Recombinant IDH1 enzyme assays (stopped-flow, 340 nm); format: biochemical, human; conditions: NADP+-dependent oxidative decarboxylation of isocitrate, vs wild-type
Protocol: 293T and the human glioblastoma cell lines U87MG and LN-18 were cultured in DMEM, 10% fetal bovine serum. Cells were transfected and selected using standard techniques. Protein expression levels were determined by Western blot analysis using IDHc antibody (Santa Cruz Biotechnology), IDH1 antibody (proteintech), MYC tag antibody (Cell Signaling Technology), and IDH2 antibody (Abcam). Metabolites were extracted from cultured cells and from tissue samples according to close variants of a previously reported method (Lu, W., Kimball, E. & Rabinowitz, J. D. J Am Soc Mass Spectrom 17, 37-50 (2006)), using 80% aqueous methanol (−80° C.) and either tissue scraping or homogenization to disrupt cells. […] For enzyme assays using recombinant IDH1 enzyme, proteins were produced in E. coli and purified using Ni affinity chromatography followed by Sephacryl S-200 size-exclusion chromatography. […] Chirality of 2HG was determined as described previously (Struys, E. A., Jansen, E. E., Verhoeven, N. M. & Jakobs, C. Clin Chem 50, 1391-5 (2004)). […] The IDH1 mutation status of each sample was determined using standard molecular biology techniques as described previously (Yan, H. et al. N Engl J Med 360, 765-73 (2009)). Metabolites were extracted and analyzed by LC-MS/MS as described above. […]

glioblastoma multiforme = glioblastoma multiforme patients; cited from earlier work
[9] = NADH 0.5 mM, alpha-Ketoglutarate 5 mM

O=C(O)CCC(=O)C(=O)O [α-KG, α-ketoglutarate]
pKi (IDH1 R132H [1]): 4.54
pKi (IDH1 R132S): 4.34
pKi (IDH1 wild-type): 3.21

O=C(O)CCC(O)C(=O)O (stereo not shown) [reaction product 2-HG, 2-hydroxyglutarate]
effect on the oxidative decarboxylation of isocitrate by wild-type ICDH1 (IDH1 wild-type): inhibit

Cc1c(/C=C2\Sc3ccccc3C2=O)c(O)n2c(nc3ccccc32)c1C#N
pIC50 (LDHb): 4.19
pIC50 (LDHa): 4.59
IC50 Ratio (40/4) (IDH1 R132H [2]): 17.42

O=C1NC(=S)S/C1=C\c1cccc(OC(=O)c2cccc(F)c2)c1
pIC50 (LDHb): < 4.00
pIC50 (LDHa): 5.06
IC50 Ratio (40/4) (IDH1 R132H [2]): 1.15

R132C
kcat ([3]; WT value estimated (est.)): 550 s⁻¹
Km ([3]; n/a indicates no measureable activity): 0.3 µM
pKi [4]: 4.21
kcat [4]: 710 s⁻¹
Km [4]: 87000 µM

R132S: recombinant IDH1 Arg132Ser mutant with C-terminal His8 tag expressed in E. coli
increase in Km ([5]; Km for isocitrate compared to wild-type): 20,000 fold
Vmax ([5]; isocitrate varied, cofactor 500 uM): 95 µmol/min/mg
Hill Constant ([5]; isocitrate, fit to Hill equation): 0.479
consumption of NADH in the presence of alpha-ketoglutarate [6, 9]: demonstrated the ability to utilize NADH
Umol/min/mg ([6]; consumption of NADH, individual determinations): 0.7183 Umol/min/mg and 0.6997 Umol/min/mg
Rate (ΔA/sec) ([6]; consumption of NADH, individual determinations, NADH 0.5 mM, alpha-Ketoglutarate 5 mM): 0.001117 ΔA/sec and 0.001088 ΔA/sec
Rate (ΔA/sec) Mean ([6]; consumption of NADH, mean): 0.001103 ΔA/sec
Umol/min/mg Mean ([6]; consumption of NADH, mean): 0.709 Umol/min/mg
consumption of NADPH in reduction of α-KG [7]: reduced α-KG and consumed NADPH
pKi ([7]; uncompetitive substrate inhibition by α-KG): 1.61
Hill Constant ([7]; α-KG): 0.479
Vmax ([7]; α-KG varied, NADPH 500 uM, pH 6.5): 2.7 µmol/min/mg

Cc1ccc(C2=NN(c3ccccc3)C(c3cn(CCC(=O)O)nc3-c3ccccc3)C2)cc1 (stereo not shown) [drawing 31]
pIC50 (LDHb): 4.76
pIC50 (LDHa): 5.23
IC50 Ratio (40/4) (IDH1 R132H [2]): 3.38
IDH1wt IC50 @ 1x Km (uM) (IDH1 wt; 1x Km of NADPH): NO inhibition

Cc1cc(C(=O)O)ccc1-c1ccc(/C=C2/NC(=O)N(Cc3ccc(Br)cc3)C2=O)o1
pIC50 (LDHb): < 4.00
pIC50 (LDHa): 4.47
IC50 Ratio (40/4) (IDH1 R132H [2]): 1.28

Cc1c(C=C2Sc3ccccc3C2=O)c(O)n2c(nc3ccccc32)c1C#N [first example]
IC50 when assayed at 100×Km (IDH1 R132H [2]; IDH1R132H at 100× Km of NADPH): shifted significantly
pIC50 (IDH1 R132H [2]; IDH1R132H, presumably at 10× Km of NADPH): 5.24

R132H: recombinant IDH1 Arg132His mutant with C-terminal His8 tag expressed in E. coli
decrease in catalytic turnover [8]: 1000 fold
consumption of NADH in the presence of alpha-ketoglutarate [6, 9]: no measurable consumption of NADH

Wt: recombinant wild type IDH1 with C-terminal His8 tag expressed in E. coli
kcat(s^−1) ([3]; WT value estimated (est.)): ~7 (est.) s^−1
consumption of NADH in the presence of alpha-ketoglutarate [6, 9]: no measurable consumption of NADH
consumption of NADPH in reduction of α-KG [7]: unable to consume NADPH
pKi [4]: 3.21
kcat [4]: 130000 s⁻¹
Km [4]: 57 µM

Cn1nnc2c(C(N)=O)ncn2c1=O [temozolomide]
tolerability (glioblastoma multiforme): well tolerated

O=C1NC(=S)S/C1=C/c1cccc(OCc2ccc([N+](=O)[O-])cc2)c1
pIC50 (LDHb): < 4.00
pIC50 (LDHa): 4.89
IC50 Ratio (40/4) (IDH1 R132H [2]): 1.39

Cc1ccc(C2=NN(c3ccccc3)C(c3cn(CCC(=O)O)nc3-c3ccccc3)C2)cc1 (stereo not shown) [second example]
inhibition of IDH1 wt (IDH1 wt; even at 100 uM, 1× Km of NADPH): no inhibition

O=C(O)CC[C@@H](O)C(=O)O [(R)-2-hydroxyglutarate]
effect on the oxidative decarboxylation of isocitrate by wild-type ICDH1 (IDH1 wild-type): did not show any effect

O=C(O)C(=O)C(C(=O)O)C(O)C(=O)O (stereo not shown) [Oxalomalate, oxalomalate]
pKi (IDH1 R132H [1]; IDH1R132H 60 ug/ml, competitive with isocitrate, NADP 0.5 mM, read-out: Oxalomalate Ki): 3.02
susceptibility to inhibition by oxalomalate (IDH1 R132H [1]; R132H mutation compared with wt): essentially unaffected
pKi (IDH1 R132S; IDH1R132S 30 ug/ml, competitive with isocitrate, NADP 0.5 mM, read-out: Oxalomalate Ki): 3.29
susceptibility to inhibition by oxalomalate (IDH1 R132S; R132S mutation compared with wt): approximately a two-fold increase in susceptibility
pKi (IDH1 wild-type; IDH1 wt 1.5 ug/ml, competitive with isocitrate, NADP 0.5 mM, read-out: Oxalomalate Ki): 3.02
